From US11136329B2, “JAK inhibitors” (Vimalan Biosciences, Inc., priority 2019, dated 2021)

Legend:
Type in all cases: biochemical
[1] = biological target: JAK1 (Homo sapiens (Human), UniProt P23458); test: JAK/TYK2 assay (Kinase Glo luminescence), JAK1; conditions: 7.5 nM enzyme, 2 uM ATP, 30 uM IRS-1, 1 hr
Experimental: (§1) 10 mM test compound stock or 1 mM control compound stock (tofocitinib, ruxolitinib or staurosporine) in DMSO was diluted to 0.4 mM in DMSO. A 3-fold series dilution was then performed in DMSO to generate 10 different compound concentrations. The assay was carried out in 384-well white plate. 0.5 uL of 40× compound DMSO solution at different concentrations was mixed with 10 uL 2× enzyme prepared in reaction buffer (20 mM HEPES, 10 mM MgCl2, 0.01% Tween, 1 mM DTT, pH 7.5). 10 uL 2× substrate mixture prepared in reaction buffer was then added to start the reaction. A short spin was done to settle down all solutions to the bottom of the plate. Final concentrations of test compound in the reaction mixture were 10000, 3333, 1111, 370, 123, 41.2, 13.7, 4.57, 1.52and 0.51 nM. Concentrations of control compound were ten times less. Enzymatic reaction was conducted at 25° C. for 1-2 hours. 10 uL of Kinase Glo Reagents was added to stop the reaction and generate the luminescent signal which was measured using Envision. Luminescence signal was inversely related to kinase activity. […] The mixture without any compound was the positive control.

[2] = biological target: JAK2 (Homo sapiens (Human), UniProt O60674); test: JAK/TYK2 assay (Kinase Glo luminescence), JAK2; conditions: 0.8 nM enzyme, 2 uM ATP, 4 uM pEY, 1 hr
Experimental: as §1

[3] = biological target: JAK3 (Homo sapiens (Human), UniProt P52333); test: JAK/TYK2 assay (Kinase Glo luminescence), JAK3; conditions: 1.5 nM enzyme, 2 uM ATP, 4 uM pEY, 1 hr
Experimental: as §1

[4] = biological target: TYK2 (Homo sapiens (Human), UniProt P29597); test: JAK/TYK2 assay (Kinase Glo luminescence), TYK2; conditions: 9 nM enzyme, 2 uM ATP, 30 uM IRS-1, 1 hr
Experimental: as §1

JAK2, sequence (O60674 whole entry, species assumed): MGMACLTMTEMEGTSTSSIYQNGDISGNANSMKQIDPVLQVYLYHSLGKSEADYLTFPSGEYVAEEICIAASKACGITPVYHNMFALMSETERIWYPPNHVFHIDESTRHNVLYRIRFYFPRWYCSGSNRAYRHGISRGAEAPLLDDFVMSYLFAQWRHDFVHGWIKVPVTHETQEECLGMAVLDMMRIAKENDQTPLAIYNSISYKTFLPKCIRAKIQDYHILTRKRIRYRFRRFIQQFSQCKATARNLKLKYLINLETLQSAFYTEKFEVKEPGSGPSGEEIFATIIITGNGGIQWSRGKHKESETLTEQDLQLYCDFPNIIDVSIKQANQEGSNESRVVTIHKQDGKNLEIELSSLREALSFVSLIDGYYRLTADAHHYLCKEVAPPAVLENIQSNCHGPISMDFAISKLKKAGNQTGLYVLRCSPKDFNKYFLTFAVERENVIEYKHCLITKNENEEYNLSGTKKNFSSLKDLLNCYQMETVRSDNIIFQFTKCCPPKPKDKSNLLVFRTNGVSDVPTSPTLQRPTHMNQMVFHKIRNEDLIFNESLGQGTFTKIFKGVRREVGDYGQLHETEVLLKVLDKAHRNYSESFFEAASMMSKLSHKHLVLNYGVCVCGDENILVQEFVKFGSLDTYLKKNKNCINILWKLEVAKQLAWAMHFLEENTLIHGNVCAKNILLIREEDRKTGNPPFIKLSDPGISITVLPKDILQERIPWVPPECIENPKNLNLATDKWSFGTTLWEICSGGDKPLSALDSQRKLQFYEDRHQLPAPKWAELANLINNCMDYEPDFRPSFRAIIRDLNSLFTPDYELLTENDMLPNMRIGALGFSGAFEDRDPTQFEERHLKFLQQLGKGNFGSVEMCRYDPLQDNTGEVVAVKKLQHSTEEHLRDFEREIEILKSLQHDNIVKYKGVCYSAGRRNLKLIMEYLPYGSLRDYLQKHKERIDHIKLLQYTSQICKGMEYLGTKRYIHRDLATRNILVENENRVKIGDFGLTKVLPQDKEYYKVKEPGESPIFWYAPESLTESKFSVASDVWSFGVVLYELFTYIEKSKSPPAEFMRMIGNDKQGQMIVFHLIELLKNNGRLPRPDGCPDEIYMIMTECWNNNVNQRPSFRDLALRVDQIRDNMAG
TYK2, sequence (P29597 whole entry, species assumed): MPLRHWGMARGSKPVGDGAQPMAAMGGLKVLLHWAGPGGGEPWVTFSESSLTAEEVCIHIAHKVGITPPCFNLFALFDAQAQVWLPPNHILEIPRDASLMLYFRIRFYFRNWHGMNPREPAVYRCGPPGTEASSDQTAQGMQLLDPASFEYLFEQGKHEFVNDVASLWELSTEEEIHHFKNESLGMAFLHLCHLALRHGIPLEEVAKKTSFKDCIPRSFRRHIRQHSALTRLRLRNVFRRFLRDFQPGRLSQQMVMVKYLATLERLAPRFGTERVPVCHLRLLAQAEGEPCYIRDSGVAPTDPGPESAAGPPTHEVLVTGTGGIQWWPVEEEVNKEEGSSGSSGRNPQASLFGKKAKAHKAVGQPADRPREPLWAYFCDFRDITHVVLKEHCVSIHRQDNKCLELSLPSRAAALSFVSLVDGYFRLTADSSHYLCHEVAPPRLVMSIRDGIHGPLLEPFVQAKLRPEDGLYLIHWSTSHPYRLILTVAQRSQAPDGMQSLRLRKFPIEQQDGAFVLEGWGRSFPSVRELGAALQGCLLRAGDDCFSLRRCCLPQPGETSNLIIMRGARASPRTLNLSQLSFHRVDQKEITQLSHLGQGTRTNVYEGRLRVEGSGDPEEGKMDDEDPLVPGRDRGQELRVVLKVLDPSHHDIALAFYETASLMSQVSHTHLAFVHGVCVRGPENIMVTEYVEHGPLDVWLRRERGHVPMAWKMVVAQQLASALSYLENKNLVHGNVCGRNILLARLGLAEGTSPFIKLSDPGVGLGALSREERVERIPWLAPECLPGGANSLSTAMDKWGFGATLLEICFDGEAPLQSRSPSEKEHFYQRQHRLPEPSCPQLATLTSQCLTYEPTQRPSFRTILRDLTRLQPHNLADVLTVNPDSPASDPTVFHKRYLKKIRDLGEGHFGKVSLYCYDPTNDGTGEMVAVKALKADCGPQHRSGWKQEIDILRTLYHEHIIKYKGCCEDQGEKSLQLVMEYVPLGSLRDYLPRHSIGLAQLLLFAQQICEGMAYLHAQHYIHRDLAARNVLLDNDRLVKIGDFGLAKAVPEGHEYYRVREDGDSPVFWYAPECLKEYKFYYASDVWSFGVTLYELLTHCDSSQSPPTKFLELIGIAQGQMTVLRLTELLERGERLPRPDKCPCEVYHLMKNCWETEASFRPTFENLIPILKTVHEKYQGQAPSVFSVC
JAK3, sequence (P52333 whole entry, species assumed): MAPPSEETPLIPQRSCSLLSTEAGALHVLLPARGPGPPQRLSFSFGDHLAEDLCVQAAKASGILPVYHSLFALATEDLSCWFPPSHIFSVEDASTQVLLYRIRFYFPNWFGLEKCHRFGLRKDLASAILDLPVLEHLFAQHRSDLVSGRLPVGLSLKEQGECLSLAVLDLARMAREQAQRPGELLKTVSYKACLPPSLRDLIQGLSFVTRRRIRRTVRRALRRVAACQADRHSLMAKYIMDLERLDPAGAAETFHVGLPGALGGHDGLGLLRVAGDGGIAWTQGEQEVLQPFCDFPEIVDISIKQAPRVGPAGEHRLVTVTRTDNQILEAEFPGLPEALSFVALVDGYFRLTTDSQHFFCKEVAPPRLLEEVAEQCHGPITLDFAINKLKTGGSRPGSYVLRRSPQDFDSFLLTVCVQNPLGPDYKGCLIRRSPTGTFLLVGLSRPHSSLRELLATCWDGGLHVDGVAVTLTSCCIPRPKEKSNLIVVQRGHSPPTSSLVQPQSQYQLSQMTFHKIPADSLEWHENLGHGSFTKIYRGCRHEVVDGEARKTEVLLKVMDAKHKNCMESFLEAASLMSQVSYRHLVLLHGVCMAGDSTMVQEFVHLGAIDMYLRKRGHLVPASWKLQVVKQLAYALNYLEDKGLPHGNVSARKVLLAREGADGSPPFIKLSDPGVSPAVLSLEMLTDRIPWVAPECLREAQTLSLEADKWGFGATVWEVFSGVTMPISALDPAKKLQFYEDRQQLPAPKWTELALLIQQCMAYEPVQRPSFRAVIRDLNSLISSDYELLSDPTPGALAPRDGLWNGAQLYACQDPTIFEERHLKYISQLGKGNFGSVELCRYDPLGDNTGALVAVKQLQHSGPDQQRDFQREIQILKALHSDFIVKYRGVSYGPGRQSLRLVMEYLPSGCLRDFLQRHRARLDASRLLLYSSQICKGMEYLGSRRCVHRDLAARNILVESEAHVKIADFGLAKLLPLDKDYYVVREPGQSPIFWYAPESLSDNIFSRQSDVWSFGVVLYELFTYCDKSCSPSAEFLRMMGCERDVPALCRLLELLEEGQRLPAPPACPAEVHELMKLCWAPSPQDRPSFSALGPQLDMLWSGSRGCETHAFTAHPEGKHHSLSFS
JAK1, sequence (P23458 whole entry, species assumed): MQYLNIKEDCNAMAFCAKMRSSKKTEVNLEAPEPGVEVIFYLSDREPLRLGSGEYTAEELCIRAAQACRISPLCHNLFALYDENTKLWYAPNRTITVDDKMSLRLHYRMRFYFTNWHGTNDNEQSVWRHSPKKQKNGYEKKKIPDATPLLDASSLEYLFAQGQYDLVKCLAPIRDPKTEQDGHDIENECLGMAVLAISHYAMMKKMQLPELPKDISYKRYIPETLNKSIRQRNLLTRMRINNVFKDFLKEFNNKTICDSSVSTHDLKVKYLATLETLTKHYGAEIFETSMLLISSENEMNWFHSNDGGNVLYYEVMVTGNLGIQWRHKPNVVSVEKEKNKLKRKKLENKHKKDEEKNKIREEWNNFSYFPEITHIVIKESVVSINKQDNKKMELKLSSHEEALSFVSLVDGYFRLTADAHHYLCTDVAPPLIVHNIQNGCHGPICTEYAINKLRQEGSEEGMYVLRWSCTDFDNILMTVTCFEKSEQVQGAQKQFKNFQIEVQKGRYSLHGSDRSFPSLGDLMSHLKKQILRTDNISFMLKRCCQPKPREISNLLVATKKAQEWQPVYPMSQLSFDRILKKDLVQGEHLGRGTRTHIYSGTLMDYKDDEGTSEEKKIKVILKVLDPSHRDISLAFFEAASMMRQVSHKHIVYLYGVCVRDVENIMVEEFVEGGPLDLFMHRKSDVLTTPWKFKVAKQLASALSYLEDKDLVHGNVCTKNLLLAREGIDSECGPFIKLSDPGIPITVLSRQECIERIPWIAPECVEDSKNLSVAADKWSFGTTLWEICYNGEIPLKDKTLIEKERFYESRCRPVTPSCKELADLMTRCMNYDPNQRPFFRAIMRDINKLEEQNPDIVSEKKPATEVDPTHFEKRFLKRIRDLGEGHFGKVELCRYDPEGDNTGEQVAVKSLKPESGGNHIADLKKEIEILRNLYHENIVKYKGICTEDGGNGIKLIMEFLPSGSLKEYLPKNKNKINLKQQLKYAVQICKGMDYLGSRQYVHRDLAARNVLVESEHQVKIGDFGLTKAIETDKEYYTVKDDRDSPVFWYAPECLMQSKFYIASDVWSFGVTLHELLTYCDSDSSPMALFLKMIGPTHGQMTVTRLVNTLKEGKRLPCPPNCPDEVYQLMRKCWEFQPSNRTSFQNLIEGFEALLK

Row | IC50 [1] | IC50 [2] | IC50 [3] | IC50 [4] | SMILES
1 | < 100 nM | < 100 nM | < 100 nM | < 100 nM | CC(C)OC(=O)Cn1cc(Nc2ncc3ccn(C[C@@H](CCF)C(C)C)c3n2)cn1 [Compound 99, isopropyl (S)-2-(4-((7-(4-fluoro-2-isopropylbutyl)-7H-pyrrolo[2,3-d]pyrimidin-2-yl)amino)-1H-pyrazol-1-yl)acetate]
2 | < 100 nM | < 100 nM | < 100 nM | < 100 nM | CC[C@H](Cn1ccc2cnc(Nc3cnn(CC(=O)OCC4COC4)c3)nc21)C(C)C [Compound 141, oxetan-3-ylmethyl (S)-2-(4-((7-(2-ethyl-3-methylbutyl)-7H-pyrrolo[2,3-d]pyrimidin-2-yl)amino)-1H-pyrazol-1-yl)acetate]
3 | < 100 nM | < 100 nM | < 100 nM | < 100 nM | CCC(Cn1ccc2cnc(Nc3cnn(CC(=O)O[C@@H](C)CO)c3)nc21)C(C)C (stereo partly drawn) [Compound 105, (S)-1-hydroxypropan-2-yl 2-(4-((7-(2-ethyl-3-methylbutyl)-7H-pyrrolo[2,3-d]pyrimidin-2-yl)amino)-1H-pyrazol-1-yl)acetate]
4 | < 100 nM | < 100 nM | < 100 nM | < 100 nM | CCC(CC)Cn1ccc2cnc(Nc3cnn(CC(=O)OCCN(C)C)c3)nc21 [Compound 103, 2-(dimethylamino)ethyl 2-(4-((7-(2-ethylbutyl)-7H-pyrrolo[2,3-d]pyrimidin-2-yl)amino)-1H-pyrazol-1-yl)acetate]
5 | < 100 nM | < 100 nM | < 100 nM | < 100 nM | CC[C@H](Cn1ccc2cnc(Nc3cnn(CC(=O)O[C@@H]4CCN(C)C4)c3)nc21)C(C)C [Compound 139, (R)-1-methylpyrrolidin-3-yl 2-(4-((7-((S)-2-ethyl-3-methylbutyl)-7H-pyrrolo[2,3-d]pyrimidin-2-yl)amino)-1H-pyrazol-1-yl)acetate]
6 | < 100 nM | < 100 nM | < 100 nM | < 100 nM | CCOC(=O)Cn1cc(Nc2ncc3ccn(CC4CCCC(C)C4)c3n2)cn1 (stereo not drawn) [Compound 45, ethyl 2-(4-((7-((3-methylcyclohexyl)methyl)-7H-pyrrolo[2,3-d]pyrimidin-2-yl)amino)-1H-pyrazol-1-yl)acetate]
7 | < 100 nM | < 100 nM | < 100 nM | < 100 nM | CCOC(=O)Cn1cc(Nc2ncc3ccn(CC4CCCCC4)c3n2)cn1 [Compound 13, ethyl 2-(4-((7-(cyclohexylmethyl)-7H-pyrrolo[2,3-d]pyrimidin-2-yl)amino)-1H-pyrazol-1-yl)acetate]
8 | 100 to 1000 nM | < 100 nM | < 100 nM | < 100 nM | CCOC(=O)Cn1cc(Nc2ncc3ccn(CC45CC6CC(CC(C6)C4)C5)c3n2)cn1 [Compound 34, ethyl 2-(4-((7-(((s,3s)-adamantan-1-yl)methyl)-7H-pyrrolo[2,3-d]pyrimidin-2-yl)amino)-1H-pyrazol-1-yl)acetate]
9 | < 100 nM | < 100 nM | < 100 nM | < 100 nM | CCOC(=O)Cn1cc(Nc2ncc3ccn(C[C@@H]4C[C@@H]5C[C@@H]5C4)c3n2)cn1 [Compound 48, ethyl 2-(4-((7-(((1R,3r,5S)-bicyclo[3.1.0]hexan-3-yl)methyl)-7H-pyrrolo[2,3-d]pyrimidin-2-yl)amino)-1H-pyrazol-1-yl)acetate]
10 | 1000 to 10000 nM | 100 to 1000 nM | 100 to 1000 nM | 100 to 1000 nM | CCOC(=O)Cn1cc(Nc2ncc3ccn(CCC#N)c3n2)cn1 [Compound 24, ethyl 2-(4-((7-(2-cyanoethyl)-7H-pyrrolo[2,3-d]pyrimidin-2-yl)amino)-1H-pyrazol-1-yl)acetate]
11 | 100 to 1000 nM | < 100 nM | < 100 nM | 100 to 1000 nM | CCOC(=O)Cn1cc(Nc2ncc3ccn(Cc4csc(C)n4)c3n2)cn1 [Compound 55, ethyl 2-(4-((7-((2-methylthiazol-4-yl)methyl)-7H-pyrrolo[2,3-d]pyrimidin-2-yl)amino)-1H-pyrazol-1-yl)acetate]
12 | < 100 nM | < 100 nM | < 100 nM | < 100 nM | CCC(Cn1ccc2cnc(Nc3cnn(CC(=O)OC(C)C)c3)nc21)C(C)C (stereo not drawn) [Compound 83, isopropyl 2-(4-((7-(2-ethyl-3-methylbutyl)-7H-pyrrolo[2,3-d]pyrimidin-2-yl)amino)-1H-pyrazol-1-yl)acetate]
13 | > 10000 nM | 100 to 1000 nM | < 100 nM | < 100 nM | CCOC(=O)Cn1cc(Nc2ncc3ccn(CCC4CCCCC4)c3n2)cn1 [Compound 18, ethyl 2-(4-((7-(2-cyclohexylethyl)-7H-pyrrolo[2,3-d]pyrimidin-2-yl)amino)-1H-pyrazol-1-yl)acetate]
14 | < 100 nM | < 100 nM | < 100 nM | < 100 nM | CC[C@H](Cn1ccc2cnc(Nc3cnn(CC(=O)OC4COC4)c3)nc21)C(C)C [Compound 140, oxetan-3-yl (S)-2-(4-((7-(2-ethyl-3-methylbutyl)-7H-pyrrolo[2,3-d]pyrimidin-2-yl)amino)-1H-pyrazol-1-yl)acetate]
15 | < 100 nM | < 100 nM | < 100 nM | < 100 nM | CCC(CC)Cn1ccc2cnc(Nc3cnn(C4CCOC4=O)c3)nc21 (stereo not drawn) [Compound 142, 3-(4-((7-(2-ethylbutyl)-7H-pyrrolo[2,3-d]pyrimidin-2-yl)amino)-1H-pyrazol-1-yl)dihydrofuran-2(3H)-one]
16 | 1000 to 10000 nM | 100 to 1000 nM | 100 to 1000 nM | 100 to 1000 nM | CCOC(=O)Cn1ccc(Nc2ncc3ccn(CC(CC)CC)c3n2)n1 [Compound 44, ethyl 2-(3-((7-(2-ethylbutyl)-7H-pyrrolo[2,3-d]pyrimidin-2-yl)amino)-1H-pyrazol-1-yl)acetate]
17 | < 100 nM | < 100 nM | < 100 nM | < 100 nM | CCC(Cn1ccc2cnc(Nc3cnn(CC(=O)OCC(C)C)c3)nc21)C(C)C (stereo not drawn) [Compound 108, isobutyl 2-(4-((7-(2-ethyl-3-methylbutyl)-7H-pyrrolo[2,3-d]pyrimidin-2-yl)amino)-1H-pyrazol-1-yl)acetate]
18 | < 100 nM | < 100 nM | < 100 nM | < 100 nM | CCOC(=O)Cn1cc(Nc2ncc3ccn(C[C@H]4CC[C@H](O)CC4)c3n2)cn1 [Compound 51, ethyl 2-(4-((7-(((1r,4r)-4-hydroxycyclohexyl)methyl)-7H-pyrrolo[2,3-d]pyrimidin-2-yl)amino)-1H-pyrazol-1-yl)acetate]
19 | < 100 nM | < 100 nM | < 100 nM | < 100 nM | CCC(Cn1ccc2cnc(Nc3cnn(CC(=O)OC(C)C(C)O)c3)nc21)C(C)C (stereo not drawn) [Compound 109, 3-hydroxybutan-2-yl 2-(4-((7-(2-ethyl-3-methylbutyl)-7H-pyrrolo[2,3-d]pyrimidin-2-yl)amino)-1H-pyrazol-1-yl)acetate]
20 | 100 to 1000 nM | < 100 nM | < 100 nM | < 100 nM | CCOC(=O)Cn1cc(Nc2ncc3ccn(CC=C(C)C)c3n2)cn1 [Compound 22, ethyl 2-(4-((7-(3-methylbut-2-en-1-yl)-7H-pyrrolo[2,3-d]pyrimidin-2-yl)amino)-1H-pyrazol-1-yl)acetate]
21 | < 100 nM | < 100 nM | < 100 nM | < 100 nM | CC[C@H](Cn1ccc2cnc(Nc3cnn(C(CC(C)(C)O)C(=O)O)c3)nc21)C(C)C (stereo partly drawn) [Compound 147, 2-(4-((7-((S)-2-ethyl-3-methylbutyl)-7H-pyrrolo[2,3-d]pyrimidin-2-yl)amino)-1H-pyrazol-1-yl)-4-hydroxy-4-methylpentanoic acid]
22 | < 100 nM | < 100 nM | < 100 nM | < 100 nM | O=C(O)CCn1cc(Nc2ncc3ccn(Cc4ccsc4)c3n2)cn1 [Compound 19, 3-(4-((7-(thiophen-3-ylmethyl)-7H-pyrrolo[2,3-d]pyrimidin-2-yl)amino)-1H-pyrazol-1-yl)propanoic acid]
23 | < 100 nM | < 100 nM | < 100 nM | < 100 nM | CC[C@H](Cn1ccc2cnc(Nc3cnn(CC(=O)O[C@H]4CCN(C)C4)c3)nc21)C(C)C [Compound 138, (S)-1-methylpyrrolidin-3-yl 2-(4-((7-((S)-2-ethyl-3-methylbutyl)-7H-pyrrolo[2,3-d]pyrimidin-2-yl)amino)-1H-pyrazol-1-yl)acetate]
24 | < 100 nM | < 100 nM | < 100 nM | < 100 nM | CCC(CC)Cn1ccc2cnc(Nc3cnn(CC(=O)OC(C)C)c3)nc21 [Compound 93, isopropyl 2-(4-((7-(2-ethylbutyl)-7H-pyrrolo[2,3-d]pyrimidin-2-yl)amino)-1H-pyrazol-1-yl)acetate]
